Source: patent US20220096411A1, “COMBINING METABOLIC STIMULATION AND AMINO ACIDS TO SENSITIZE TOLERANT BACTERIA TO ANTIBIOTICS” (priority 2019, published 2022)

Legend:
[1] = tested on: Escherichia coli K12 strain MG1655; assay: Killing assay (CFU) of tolerant stationary phase cultures; type: cell-based; conditions: for ability of individual carbon source to restore β-lactam antibiotic sensitivity (CFU/mL): tolerant cultures grown in 100% LB medium, FIG. 5
[2] = tested on: Escherichia coli K12 strain MG1655; type: cell-based
[3] = tested on: Escherichia coli K12 strain MG1655; assay: MIC determination (metabolite-enabled MIC from optical density dose-response); type: cell-based; conditions: for potentiation of the antibiotic by D-amino acids: with pyruvate (FIG. 2E) or without metabolic stimulant (FIG. 2F), ampicillin potentiated, comparators D-cycloserine, ciprofloxacin, gentamicin are the non-β-lactams; for change of ampicillin MIC on amino acid supplementation: across all tested growth-supporting metabolites (carbon sources), FIG. 2B; for metabolite-enabled MIC of β-lactams upon metabolite supplementation: ampicillin, carbenicillin, mecillinam, penicillin, 1% LB; for metabolite-enabled MIC of β-lactams upon metabolite supplementation / metabolite-enabled MIC, D-isomer compared with L-isomer: metabolite 10 mM; for metabolite-enabled MIC, D-isomer compared with L-isomer: β-lactams of FIG. 1B
[4] = tested on: E. coli genetic knockout ΔdadA; assay: Ampicillin sensitization of knockout strain unable to catabolize D-alanine into pyruvate; type: cell-based, Escherichia coli; conditions: FIG. 2A; for sensitivity of tolerant ΔdadA bacteria to ampicillin on amino acid supplementation alone: no pyruvate; for potentiation of ampicillin sensitivity of ΔdadA strain by amino acid: strain supplemented with pyruvate
[5] = tested on: clinical isolate of Escherichia coli (isolate DICON-146); assay: Killing assay, ampicillin-resistant ESBL clinical isolate in stationary phase; type: cell-based; conditions: D-methionine added on top of sulbactam and pyruvate; FIG. 3C

Molecule: O=C[C@H](O)[C@@H](O)[C@H](O)CO [xylose]
- ability of individual carbon source to restore β-lactam antibiotic sensitivity (CFU/mL) [1]: varying abilities to restore β-lactam antibiotic sensitivity
- effect of carbon source on growth and population density (CFU) ([2]; cultures grown in 1% LB medium, 10 mM, no antibiotic, FIG. 7A right): did stimulate growth and an increase in population density
- effect of carbon source on population density (CFU) ([2]; cultures grown in 100% LB medium, 10 mM, no antibiotic, FIG. 7A left): did not lead to an increase in population density

Molecule: O=C[C@@H](O)[C@H](O)[C@H](O)CO [arabinose]
- ability of individual carbon source to restore β-lactam antibiotic sensitivity (CFU/mL) [1]: varying abilities to restore β-lactam antibiotic sensitivity

Molecule: gentamicin [reference compound]
- potentiation of the antibiotic by D-amino acids [3]: specific to β-lactam antibiotics

Molecule: C[C@@H](N)C(=O)O [D-alanine]
- performance of metabolite in sensitizing cultures to ampicillin (CFU confirmed cell death) ([1]; cultures treated with ampicillin and metabolite, FIG. 1A): strong
- change of ampicillin MIC on amino acid supplementation [3]: consistently lowered the ampicillin MIC
- metabolite-enabled MIC of β-lactams upon metabolite supplementation ([3]; FIG. 1B): lowest observed MICs
- metabolite-enabled MIC, D-isomer compared with L-isomer [3]: outperformed their corresponding L-isomers
- sensitivity of tolerant ΔdadA bacteria to ampicillin on amino acid supplementation alone [4]: equally insensitive to ampicillin
- potentiation of ampicillin sensitivity of ΔdadA strain by amino acid [4]: potentiate sensitivity to ampicillin

Molecule: CCN1CCN(C(=O)N[C@@H](C(=O)N[C@@H]2C(=O)N3[C@@H]2SC(C)(C)[C@@H]3C(=O)O)c2ccccc2)C(=O)C1=O [piperacillin, reference compound]
- sensitization of tolerant bacteria to the antibiotic ([1]; metabolic stimulation by pyruvate and potentiation by D-amino acids, FIG. 2G): sensitized tolerant bacteria

Molecule: O=C(O)[C@H]1CCCN1 [D-proline]
- change of ampicillin MIC, D-amino acid compared with L-isomer ([3]; cultures sensitized with pyruvate, alanine pair in dadA mutant, FIG. 2C): less robust than for other D-amino acids

Molecule: OCC(O)CO [glycerol]
- ability of individual carbon source to restore β-lactam antibiotic sensitivity (CFU/mL) [1]: varying abilities to restore β-lactam antibiotic sensitivity

Molecule: N[C@H](CO)C(=O)O [D-serine]
- metabolite-enabled MIC of β-lactams upon metabolite supplementation ([3]; FIG. 1B): lowest observed MICs
- metabolite-enabled MIC, D-isomer compared with L-isomer [3]: outperformed their corresponding L-isomers

Molecule: CSCC[C@@H](N)C(=O)O [D-methionine]
- sensitization of stationary phase MG1655 to ampicillin in MOPS-rich medium ([1]; MOPS-rich medium, D-methionine added on top of pyruvate, FIG. 3A): further potentiated ampicillin
- observed effect size of D-amino acid on β-lactam MIC ([3]; FIG. 1B, FIG. 2C): larger than for D-alanine
- effect of D-methionine on population density (CFU) ([2]; used alone or in combination with xylose, FIG. 7B): did not increase population density
- restoration of ampicillin sensitivity of resistant (ESBL) E. coli in stationary phase [5]: further potentiated killing by lower drug concentrations

Molecule: C[C@H](N)C(=O)O [L-alanine]
- change of ampicillin MIC on amino acid supplementation [3]: did not
- sensitivity of tolerant ΔdadA bacteria to ampicillin on amino acid supplementation alone [4]: equally insensitive to ampicillin
- potentiation of ampicillin sensitivity of ΔdadA strain by amino acid [4]: no such potentiation was observed

Molecule: O=C(CO)[C@@H](O)[C@H](O)[C@H](O)CO [fructose]
- ability of individual carbon source to restore β-lactam antibiotic sensitivity (CFU/mL) [1]: varying abilities to restore β-lactam antibiotic sensitivity

Molecule: OC[C@@H](O)[C@@H](O)[C@H](O)[C@H](O)CO [mannitol]
- ability of individual carbon source to restore β-lactam antibiotic sensitivity (CFU/mL) [1]: varying abilities to restore β-lactam antibiotic sensitivity

Molecule: CC1(C)[C@H](C(=O)O)N2C(=O)C[C@H]2S1(=O)=O [sulbactam, reference compound]
- restoration of ampicillin sensitivity of resistant (ESBL) E. coli in stationary phase [5]: unable to restore sensitivity to ampicillin

Molecule: CC1(C)S[C@@H]2[C@H](NC(=O)[C@H](N)c3ccccc3)C(=O)N2[C@H]1C(=O)O [ampicillin, reference compound]
- killing of stationary phase cultures by the antibiotic alone ([1]; 24 hour treatment with 1 mg/ml ampicillin, cultures grown in LB 24 hours, FIG. 1A): not killed
- potentiation of the antibiotic by D-amino acids [3]: specific to β-lactam antibiotics

Molecule: N[C@@H]1CONC1=O [D-cycloserine, reference compound]
- potentiation of the antibiotic by D-amino acids [3]: specific to β-lactam antibiotics

Molecule: O=C(O)[C@H](O)[C@@H](O)[C@H](O)[C@H](O)CO [gluconate]
- ability of individual carbon source to restore β-lactam antibiotic sensitivity (CFU/mL) [1]: varying abilities to restore β-lactam antibiotic sensitivity
